pIC50: −log10 of the molar value.
biological target: T1, hNLRP3 (Homo sapiens, UniProt Q96P20); assay: IL-1β production in PMA-differentiated THP-1 cells stimulated with gramicidin (hTHP-1 assay); type: cell-based; conditions: read-out: NLRP3 Antagonist, hNLRP3 (THP-1, IL-1b) Normalized: GeoMean IC50
T1 construct: THP-1 cells were purchased from the American Type Culture Collection; host or cells: THP-1 cells, PMA-differentiated, stimulated with gramicidin
Method: Procedure 1: IL-1β Production in PMA-Differentiated THP-1 Cells Stimulated with Gramicidin.
THP-1 cells were purchased from the American Type Culture Collection and sub-cultured according to instructions from the supplier. […] Prior to the experiment, compounds were dissolved in dimethyl sulfoxide (DMSO) to generate a 30 mM stock. […] DMSO was backfilled in the plate to achieve a final DMSO assay concentration of 0.37%. The plate was then sealed and stored at room temperature until required.
THP-1 cells were treated with PMA (Phorbol 12-myristate 13-acetate) (20 ng/ml) for 16-18 hours. On the day of the experiment the media was removed and adherent cells were detached with trypsin for 5 minutes.
Procedure 2: IL-1β Production in PMA-Differentiated THP-1 Cells Stimulated with Gramicidin.
THP-1 cells were purchased from the American Type Culture Collection and sub-cultured according to instructions from the supplier. […] Prior to the experiment THP-1 were treated with PMA (Phorbol 12-myristate 13-acetate) (20 ng/ml) for 16-18 hours. Compounds were dissolved in dimethyl sulfoxide (DMSO) to generate a 30 mM stock. On the day of the experiment the media was removed and adherent cells were detached with trypsin for 5 minutes. […] Final DMSO concentration was at 0.37%. Cells were incubated with compounds for 1 hour and then stimulated with gramicidin (5 μM) (Enzo) for 2 hours. Plates were then centrifuged at 340 g for 5 min. Cell free supernatant (40 μL) was collected using a 96-channel PlateMaster (Gilson) and the production of IL-1β was evaluated by HTRF (cisbio).
1. Experimental procedure
1.2 Compound Preparation • Prepare the 3-fold serial dilution of the compounds with DMSO in a 384-well LDV Microplate using TECAN EVO system to generate the compound source plate with 10 concentrations. Top concentration is 30 mM. FIG. 5 depicts the layout of the microplate.
FIG. 5 depicts the layout of the plates: HC: 100 μM CRID3 (MCC950)+5 μM gramicidin LC: 5 μM Gramicidin.
1.5 IL-1β Detection • 1) Homogenize the 5× diluent #5 with a vortex and add 1 volume of stock solution in 4 volumes of distilled water. • 2) Thaw 20× stock solution of anti-IL1β-Cryptate-antibody and anti-IL1β XL-antibody. […] 2. Data Analysis: • 1.

T1 sequence (Q96P20 whole entry): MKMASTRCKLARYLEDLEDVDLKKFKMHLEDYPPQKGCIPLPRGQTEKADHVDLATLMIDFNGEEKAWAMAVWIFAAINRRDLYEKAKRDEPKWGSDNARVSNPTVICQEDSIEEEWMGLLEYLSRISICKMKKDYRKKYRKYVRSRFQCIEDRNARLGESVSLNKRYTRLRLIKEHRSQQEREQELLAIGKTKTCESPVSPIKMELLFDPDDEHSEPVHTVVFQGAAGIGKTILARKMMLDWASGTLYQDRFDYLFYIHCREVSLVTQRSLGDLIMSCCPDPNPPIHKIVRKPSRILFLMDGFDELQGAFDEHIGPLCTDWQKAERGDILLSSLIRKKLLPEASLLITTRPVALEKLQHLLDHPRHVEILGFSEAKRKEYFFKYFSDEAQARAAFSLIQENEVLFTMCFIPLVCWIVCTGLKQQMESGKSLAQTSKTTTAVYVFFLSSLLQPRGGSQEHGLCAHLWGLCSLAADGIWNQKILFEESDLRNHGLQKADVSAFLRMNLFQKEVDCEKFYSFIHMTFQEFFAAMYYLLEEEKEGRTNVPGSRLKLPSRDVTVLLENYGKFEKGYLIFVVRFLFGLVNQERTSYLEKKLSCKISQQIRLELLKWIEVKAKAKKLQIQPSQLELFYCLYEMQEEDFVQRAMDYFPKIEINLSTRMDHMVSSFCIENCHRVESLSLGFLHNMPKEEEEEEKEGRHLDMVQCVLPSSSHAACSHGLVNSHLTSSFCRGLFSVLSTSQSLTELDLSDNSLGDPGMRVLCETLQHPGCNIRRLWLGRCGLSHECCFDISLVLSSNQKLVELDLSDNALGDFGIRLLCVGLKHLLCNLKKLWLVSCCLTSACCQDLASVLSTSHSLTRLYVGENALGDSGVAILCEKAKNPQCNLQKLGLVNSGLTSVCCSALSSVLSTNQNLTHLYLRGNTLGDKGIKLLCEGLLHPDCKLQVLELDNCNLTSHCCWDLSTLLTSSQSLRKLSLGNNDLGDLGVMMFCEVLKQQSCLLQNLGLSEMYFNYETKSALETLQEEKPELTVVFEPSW

Structure (SMILES)	pIC50
CC1(C)CS(=O)(=NC(=O)Nc2c3c(cc4c2CCC4)CCC3)NC1=O (single isomer, unassigned) [Compound 102a, (S or R)-1-(4,4-dimethyl-1-oxido-3-oxo-1l6-isothiazolidin-1-ylidene)-3-(1,2,3,5,6,7-hexahydro-s-indacen-4-yl)urea]	6.00 to 6.70
CN1Cc2ccccc2S1(=O)=NC(=O)Nc1c2c(cc3c1CCC3)CCC2 (stereo not drawn) [Compound 107]	< 4.52
CC(C)c1cc(F)cc(C(C)C)c1CC(=O)N=S1(=O)NC(=O)c2ccc(C(C)(C)O)cc21 (stereo not drawn) [Compound 109]	< 4.52
CC(C)c1cc2c(c(C(C)C)c1CC(=O)N=S1(=O)NC(=O)c3ccc(C(C)(C)O)cc31)COC2 (single isomer, unassigned) [Compound 104a, (S or R)-2-(4,6-diisopropyl-1,3-dihydroisobenzofuran-5-yl)-N-(6-(2-hydroxypropan-2-yl)-1-oxido-3-oxo-2,3-dihydro-1l4-benzo[d]isothiazol-1-ylidene)acetamide]	< 4.52
Cc1c(C(F)(F)F)nc2c(c1NC(=O)N=S1(=O)NC(=O)c3ccc(C(C)(C)O)cc31)CCC2 (stereo not drawn) [Compound 108, 1-(6-(2-hydroxypropan-2-yl)-1-oxido-3-oxo-2,3-dihydro-1l4-benzo[d]isothiazol-1-ylidene)-3-(3-methyl-2-(trifluoromethyl)-6,7-dihydro-5H-cyclopenta[b]pyridin-4-yl)urea]	5.30 to 6.00
Cc1c(C(F)(F)F)nc2c(c1NC(=O)N=S1(=O)NC(=O)c3ccc(C(C)(C)O)cc31)CCC2 (single isomer, unassigned) [Compound 108b, (S or R)-1-(6-(2-hydroxypropan-2-yl)-1-oxido-3-oxo-2,3-dihydro-1l4-benzo[d]isothiazol-1-ylidene)-3-(3-methyl-2-(trifluoromethyl)-6,7-dihydro-5H-cyclopenta[b]pyridin-4-yl)urea]	< 4.52
CC(C)(O)c1ccc2c(c1)S(=O)(=NC(=O)Nc1c3c(nc4c1CCC4)CCC3)NC2=O (single isomer, unassigned) [Compound 136, (S or R)-1-(1,2,3,5,6,7-hexahydrodicyclopenta[b,e]pyridin-8-yl)-3-(6-(2-hydroxypropan-2-yl)-1-oxido-3-oxo-2,3-dihydro-1l4-benzo[d]isothiazol-1-ylidene)urea]	6.00 to 6.70
O=C1CCCS(=O)(=NC(=O)Nc2c3c(cc4c2CCC4)CCC3)N1 (single isomer, unassigned) [Compound 113a, (S or R)-1-(1,2,3,5,6,7-hexahydro-s-indacen-4-yl)-3-(1-oxido-3-oxo-1l6,2-thiazinan-1-ylidene)urea]	6.00 to 6.70
COC(=O)c1ccc2c(c1)S(=O)(=NC(=O)Nc1c3c(cc4c1CCC4)CCC3)NC2=O (single isomer, unassigned) [Compound 134b, methyl (S or R)-1-(((1,2,3,5,6,7-hexahydro-s-indacen-4-yl)carbamoyl)imino)-3-oxo-2,3-dihydro-1H-1l4-benzo[d]isothiazole-6-carboxylate 1-oxide]	4.52 to 5.30
O=C(N=S1(=O)NC(=O)c2cccnc21)Nc1c2c(cc3c1CCC3)CCC2 (single isomer, unassigned) [Compound 223a, (S or S)-1-(1,2,3,5,6,7-hexahydro-s-indacen-4-yl)-3-(1-oxido-3-oxo-2,3-dihydro-1l4-isothiazolo[5,4-b]pyridin-1-ylidene)urea]	5.30 to 6.00
O=C(N=S1(=O)NC(=O)c2cccnc21)Nc1c2c(cc3c1CCC3)CCC2 (stereo not drawn) [Compound 223, 1-(1,2,3,5,6,7-hexahydro-s-indacen-4-yl)-3-(1-oxido-3-oxo-2,3-dihydro-1l4-isothiazolo[5,4-b]pyridin-1-ylidene)urea]	4.52 to 5.30
COC(=O)c1ccc2c(c1)S(=O)(=NC(=O)Nc1c3c(cc4c1CCC4)CCC3)NC2=O (single isomer, unassigned) [Compound 134a, methyl (R or S)-1-(((1,2,3,5,6,7-hexahydro-s-indacen-4-yl)carbamoyl)imino)-3-oxo-2,3-dihydro-1H-1l4-benzo[d]isothiazole-6-carboxylate 1-oxide]	< 4.52
CC1(C)CS(=O)(=NC(=O)Nc2c3c(cc4c2CCC4)CCC3)NC1=O (stereo not drawn) [Compound 102, 1-(4,4-dimethyl-1-oxido-3-oxo-1l6-isothiazolidin-1-ylidene)-3-(1,2,3,5,6,7-hexahydro-s-indacen-4-yl)urea]	6.00 to 6.70
CC(C)(O)c1ccc2c(c1)S(=O)(=NC(=O)Nc1c3c(cc4c1CC4)CCC3)NC2=O (single isomer, unassigned) [Compound 112b, (S or R)-1-(6-(2-hydroxypropan-2-yl)-1-oxido-3-oxo-2,3-dihydro-1l4-benzo[d]isothiazol-1-ylidene)-3-(2,4,5,6-tetrahydro-1H-cyclobuta[f]inden-3-yl)urea]	5.30 to 6.00
O=C(N=S1(=O)NC(=O)c2ccc(-n3cccn3)cc21)Nc1c2c(cc3c1CCC3)CCC2 (stereo not drawn) [Compound 211, 1-(1,2,3,5,6,7-hexahydro-s-indacen-4-yl)-3-(1-oxido-3-oxo-6-(1H-pyrazol-1-yl)-2,3-dihydro-1l4-benzo[d]isothiazol-1-ylidene)urea]	< 4.52
CC(C)(O)c1ccc2c(c1)S(=O)(=NC(=O)Cc1cc3c(c4c1CCC4)CCC3)NC2=O (stereo not drawn) [Compound 114, 2-(1,2,3,6,7,8-hexahydro-as-indacen-4-yl)-N-(6-(2-hydroxypropan-2-yl)-1-oxido-3-oxo-2,3-dihydro-1l4-benzo[d]isothiazol-1-ylidene)acetamide]	< 4.52
O=C(N=S1(=O)NC(=O)c2ccc(Br)cc21)Nc1c2c(cc3c1CCC3)CCC2 (single isomer, unassigned) [Compound 103b, (S or R)-1-(6-bromo-1-oxido-3-oxo-2,3-dihydro-1l4-benzo[d]isothiazol-1-ylidene)-3-(1,2,3,5,6,7-hexahydro-s-indacen-4-yl)urea]	4.52 to 5.30
O=C(N=S1(=O)CCCN1)Nc1c2c(cc3c1CCC3)CCC2 (single isomer, unassigned) [Compound 119a, (R or S)-1-(1,2,3,5,6,7-hexahydro-s-indacen-4-yl)-3-(1-oxido-1l6-isothiazolidin-1-ylidene)urea]	4.52 to 5.30
CC(C)(O)c1ccc2c(c1)S(=O)(=NC(=O)Nc1c3c(nc(C4CC4)c1C1CC1)CCC3)NC2=O (single isomer, unassigned) [Compound 106b, 1(S or R)-1-(2,3-dicyclopropyl-6,7-dihydro-5H-cyclopenta[b]pyridin-4-yl)-3-(6-(2-hydroxypropan-2-yl)-1-oxido-3-oxo-2,3-dihydro-1l4-benzo[d]isothiazol-1-ylidene)urea]	< 4.52
O=C1CCS(=O)(=NC(=O)Nc2c3c(cc4c2CCC4)CCC3)N1 (single isomer, unassigned) [Compound 131a, (R or S)-1-(1,2,3,5,6,7-hexahydro-s-indacen-4-yl)-3-(1-oxido-3-oxo-1l6-isothiazolidin-1-ylidene)urea]	5.30 to 6.00
CC(C)(O)c1ccc2c(c1)S(=O)(=NC(=O)Nc1c3c(cc4c1CC4)CCC3)NC2=O (stereo not drawn) [Compound 112, 1-(6-(2-hydroxypropan-2-yl)-1-oxido-3-oxo-2,3-dihydro-1l4-benzo[d]isothiazol-1-ylidene)-3-(2,4,5,6-tetrahydro-1H-cyclobuta[f]inden-3-yl)urea]	6.00 to 6.70

Reference: patent US12134611B2, “Compounds and compositions for treating conditions associated with NLRP activity” (Novartis AG, priority 2018, dated 2024)
